Read-outs that look alike come from different tables or passages of the source.
Tests used:
[1] = molecular target: human CD (cathepsin D) (Homo sapiens, UniProt P07339); assay: enzyme inhibition of human cathepsin D (CD); type: biochemical; details: for Ki: human CD; for selectivity CD/BACE 1: ratio of Ki values; for selectivity against CD: BACE 1 over CD
[2] = molecular target: β-secretase in neuroblastoma cells (Homo sapiens, UniProt P56817)
Source text: The inventors have also evaluated the cellular inhibition of β-secretase in neuroblastoma cells.

[3] = molecular target: recombinant β-secretase (BACE 1, memapsin 2) (Homo sapiens, UniProt P56817); assay: BACE 1 enzyme inhibitory assay against recombinant β-secretase
Procedure: The BACE 1 inhibitory activity of synthetic inhibitors 4-9 was determined against recombinant β-secretase using previously reported assay protocols (Ermolieff et al., 2000).

[4] = molecular target: T1, recombinant BACE 2 (Homo sapiens, UniProt Q9Y5Z0); assay: enzyme inhibition of recombinant BACE 2; type: biochemical; details: for selectivity BACE 2/BACE 1: ratio of Ki values; for Ki: recombinant BACE 2
T1 sequence (Q9Y5Z0 63-518): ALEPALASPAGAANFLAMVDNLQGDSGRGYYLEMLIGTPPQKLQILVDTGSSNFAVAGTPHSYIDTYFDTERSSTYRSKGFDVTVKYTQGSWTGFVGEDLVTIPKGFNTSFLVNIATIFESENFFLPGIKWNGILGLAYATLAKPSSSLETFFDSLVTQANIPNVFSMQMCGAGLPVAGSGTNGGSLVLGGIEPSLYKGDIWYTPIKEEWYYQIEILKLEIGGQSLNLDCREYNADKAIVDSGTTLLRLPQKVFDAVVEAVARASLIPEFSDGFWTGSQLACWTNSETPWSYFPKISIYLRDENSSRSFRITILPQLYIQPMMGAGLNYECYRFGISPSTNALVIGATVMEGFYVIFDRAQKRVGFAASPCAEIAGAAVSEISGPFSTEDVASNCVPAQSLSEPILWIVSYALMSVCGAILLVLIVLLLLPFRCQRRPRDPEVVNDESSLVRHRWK

[5] = read-out: IC50 (nM), cellular, determined in neuroblastoma cells
[6] = read-out: Ki (nM) BACE 1, recombinant β-secretase

Sequence of recombinant β-secretase (BACE 1, memapsin 2) (P56817 46-501): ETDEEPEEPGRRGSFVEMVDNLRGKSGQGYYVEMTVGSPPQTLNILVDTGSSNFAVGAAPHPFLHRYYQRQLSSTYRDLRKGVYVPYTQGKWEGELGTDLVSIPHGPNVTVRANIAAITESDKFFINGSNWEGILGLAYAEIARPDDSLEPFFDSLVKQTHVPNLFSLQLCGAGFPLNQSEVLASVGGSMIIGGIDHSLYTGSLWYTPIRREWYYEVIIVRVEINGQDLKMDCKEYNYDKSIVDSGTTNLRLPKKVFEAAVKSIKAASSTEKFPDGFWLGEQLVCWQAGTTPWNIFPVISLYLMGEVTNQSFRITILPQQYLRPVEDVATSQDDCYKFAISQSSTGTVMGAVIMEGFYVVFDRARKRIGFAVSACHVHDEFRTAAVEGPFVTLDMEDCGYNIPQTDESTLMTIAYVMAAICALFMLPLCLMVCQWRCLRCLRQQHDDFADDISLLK
Sequence of β-secretase in neuroblastoma cells (P56817 46-501): as above
Sequence of human CD (cathepsin D) (P07339 65-412): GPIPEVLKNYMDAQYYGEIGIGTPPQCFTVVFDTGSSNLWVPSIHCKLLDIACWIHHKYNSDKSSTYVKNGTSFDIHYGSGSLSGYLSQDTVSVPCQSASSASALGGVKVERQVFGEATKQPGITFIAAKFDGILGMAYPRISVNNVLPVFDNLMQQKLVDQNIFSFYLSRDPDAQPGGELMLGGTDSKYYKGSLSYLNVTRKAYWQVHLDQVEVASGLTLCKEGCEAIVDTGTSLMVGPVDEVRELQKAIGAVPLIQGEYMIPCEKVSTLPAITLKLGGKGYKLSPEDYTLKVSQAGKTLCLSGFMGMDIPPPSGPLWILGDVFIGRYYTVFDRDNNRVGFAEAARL

SMILES	selectivity against CD (in words) [1]	Ki [1]	selectivity CD/BACE 1 [1]	IC50 [2, 5]	Ki [3, 6]	BACE 1 inhibitory activity (in words) ([3]; recombinant β-secretase)	further results
CC[C@H](NC[C@H](Cc1ccccc1)NC(=O)c1cc(C(=O)N[C@H](C)c2ccccc2)cc(N(C)S(C)(=O)=O)c1)C(=O)NCC(C)C [Inhibitor 4]	marginal selectivity	8260 nM	>300	9.5 nM	27 nM	–	selectivity against BACE 2 (in words) [4]: marginal selectivity; selectivity against BACE 2 ([4]; BACE 1 over BACE 2): > 50 fold; selectivity BACE 2/BACE 1 [4]: >55; Ki [4]: 1450 nM
CC(C)CN(C)C(=O)[C@@H](NC[C@H](Cc1ccccc1)NC(=O)c1cc(C(=O)N[C@H](C)c2ccccc2)cc(N(C)S(C)(=O)=O)c1)[C@H](C)O [Inhibitor 7]	–	–	–	–	–	abolished all BACE 1 inhibitory activity	Ki [3]: > 1000 nM
CO[C@@H](C)[C@H](NC[C@H](Cc1ccccc1)NC(=O)c1cc(C(=O)N[C@H](C)c2ccccc2)cc(N(C)S(C)(=O)=O)c1)C(=O)NCC(C)C [Inhibitor 8]	–	–	–	–	25 nM	substantial reduction in inhibitory potency	–
CC(C)CNC[C@@H](NC[C@H](Cc1ccccc1)NC(=O)c1cc(C(=O)N[C@H](C)c2ccccc2)cc(N(C)S(C)(=O)=O)c1)[C@H](C)O [Inhibitor 9]	–	–	–	–	–	total loss in potency	–
CCc1cn2c3c(cc(C(=O)N[C@H](CN[C@H](C(=O)NCC(C)C)[C@H](C)O)Cc4ccccc4)cc13)N(C)S(=O)(=O)CC2 [Inhibitor 18]	–	7100 nM	>970	22 nM	7.3 nM	–	selectivity against CD [1]: over 970 fold; ratio of cell inhibitory to enzyme inhibitory efficacy ([2]; cellular IC50 / BACE 1 Ki): 3
CCC[C@H](O)[C@H](NC[C@H](Cc1ccccc1)NC(=O)c1cc2c3c(c1)c(CC)cn3CCS(=O)(=O)N2C)C(=O)NCC(C)C [Inhibitor 19]	improvement in CD selectivity	690 nM	>1700	–	0.4 nM	–	improvement in the potency ([3]; BACE 1 Ki, inhibitor 19 versus inhibitor 18): around 18 fold
CCC[C@H](O)[C@H](NC[C@H](Cc1ccccc1)NC(=O)c1cc2c3c(c1)c(CC)cn3CC(C)(C)S(=O)(=O)N2C)C(=O)NCC(C)C [Inhibitor 20]	excellent selectivity	530 nM	>14700	15 nM	0.036 nM	–	potency enhancement ([3]; BACE 1 Ki, over unsubstituted inhibitor 19): > 10 fold; selectivity against BACE 2 (in words) [4]: good selectivity; selectivity BACE 2/BACE 1 [4]: >300; Ki [4]: 11 nM
CCc1cn2c3c(cc(C(=O)N[C@H](CN[C@H](C(=O)NCC(C)C)[C@H](C)O)Cc4ccccc4)cc13)N(C)S(=O)(=O)C1(CC1)C2 [Inhibitor 21]	–	–	–	–	7.2 nM	impressive potency	–
CCC[C@H](O)[C@H](NC[C@H](Cc1ccccc1)NC(=O)c1cc2c3c(c1)c(CC)cn3CC1(CC1)S(=O)(=O)N2C)C(=O)NCC(C)C [Inhibitor 22]	–	2000 nM	>4200	–	–	impressive potency	selectivity against CD [1]: > 4200 fold; IC50 [2]: 14 nM; Ki [3]: 0.47 nM
